Assay results published in article PMC8350397, “GSK137, a potent small-molecule BCL6 inhibitor with in vivo activity, suppresses antibody responses in mice” (The Journal of Biological Chemistry, 2021).

Tests used:
BCL6 BTB-POZ domain = conditions: read-out: potency on BCL6 BTB-POZ domain; cited from earlier work
[1] = test system: TNP-specific IgM and IgG responses; assay: TNP-KLH immunization model, serum anti-TNP antibodies; format: in vivo, mouse
Experimental: (§1) Male CD1 mice (30–40 g, 8–9 weeks of age) were randomized into study treatment groups, housed individually and allowed to acclimatize under standard laboratory conditions for a minimum of 5 days prior to commencement of the study. Mice received food and water ad libitum. The experiment was performed in a certified dedicated in vivo experimental laboratory at the GlaxoSmithKline Medicines Research Centre, Stevenage, United Kingdom. The four treatment groups were (1) unimmunized and untreated (naive group) (n = 4); (2) intraperitoneal vehicle (n = 13), (3) GSK137 15 mg/kg (n = 14), and (4) GSK137 30 mg/kg (n = 14). Groups (2) to (4) were given intraperitoneal immunization with TNP–KLH (100 μg) on day 0, vehicle was 1% methylcellulose in water + 0.1% sodium lauryl sulphate, and compound or vehicle was given to groups (2) to (4) by oral gavage three times per day from day −1 to day +12. Blood samples were collected by tail vein for measurement of compound, IgM and IgG levels on days 0, 5, 8, and 12 ahead of immunization/first daily dose. On day 8, blood samples were also taken (n = 7) at 0.5, 1.5, 3, 5, or 7 h after first daily dose. On day 12, spleens were collected, weighed, and placed into Dulbecco's modified Eagle's medium on wet ice for analysis by flow cytometry.
For antibody measurements, TNP–bovine serum albumin–coated plates were blocked, and then, standards or serum samples diluted 1:1000 or 1:2500 were incubated for 2 h at room temperature before biotinylated antimouse IgG or IgM antibodies were allowed to bind for 1 h at room temperature and detected using streptavidin-bound horseradish peroxidase incubated for 30 min, followed by the addition of 3,3′,5,5′-tetramethylbenzidine substrate for 15 min. The reaction was stopped, and the plates read at 450 nm by spectrophotometry. Plates were washed between each incubation step to remove unbound reagent. Data analysis was carried out in GraphPad Prism 5 (GraphPad Software, Inc) software using a four-parameter logistic fit of the standards response.

[2] = Tolerability in the immunization model (body weight, signs of toxicity, cytokines); format: in vivo, mouse
Experimental: as §1
To determine cytokine and chemokine levels plasma samples were analysed by electrochemiluminescence assay using a custom mouse multiplex kit (K15355K-4, Meso Scale Diagnostics (MSD), Rockville, MD, USA) to measure IFNγ, IL-6, IL-10, TNF, MCP-1, KC, IL-12, IL1b, IL-13 and IL17a according to the manufacturer’s protocol. Plates were read using an MSD Sector Imager 6000 and analysed with Discovery workbench software v4.0.11, cytokine data were back-fitted to the MSD standard curve.

[3] = test system: splenic GC B cells and Tfh cells; assay: TNP-KLH immunization model, flow cytometry of spleen cells; format: in vivo, mouse; conditions: for reduction of mean absolute number of Tfh cells per spleen vs vehicle: day 12, not statistically significant
Experimental: as §1
For cell measurements, spleens were passed through a […] cell strainer, red blood cells were lysed, and cells were resuspended in medium, counted, and 1 × 10^6 cells plated for staining. Cells were washed in PBS and resuspended in 100 μl viability dye (diluted 1:1000 in PBS) for 15 min at room temperature. About 100 μl cell-staining buffer (CSB; BioLegend; catalog no. 420201) was added to each well before centrifugation and removal of supernatants, and cell pellets were resuspended in 100 μl relevant cocktail of antibodies (Table S2) for surface staining and incubated for 30 min at 4 °C. Cells were then washed in CSB and resuspended in 200 μl of FoxP3 fixation and permeabilization buffer for 30 min for staining of intracellular markers for 30 min. Cells were washed in PermWash buffer and resuspended in CSB (250 μl) before acquisition of a Cytek Aurora spectral cytometer (Cytek). Gating was carried out as shown (Figs. S1 and S2), and data were analyzed on FlowJo 10 (Becton Dickinson). Cell frequency was used to calculate an absolute cell number per tissue from the total live cell counts from whole homogenized spleen. Data were normalized against background GC and Tfh quantified in naive mice prior to performing percent inhibition calculations.
Single cell suspensions were generated by passing spleens through a 40 µM cell strainer into medium (RPMI 1640 supplemented with 2% fetal calf serum, 1% penicillin / streptomycin, 1% L-glutamine). Following centrifugation (400 g, 5 minutes, 4 °C) and removal of supernatants, red blood cells were lysed by incubation in 1 mL lysis buffer for 1 minute at room temperature. Cells were resuspended in medium, counted on a Nucleocounter NC3000 (Chemometec, Lillerød, Denmark) and 1x10^6 cells plated into 96-well polypropylene plates for staining. Cells were washed in 200 µL PBS and resuspended in 100 µL viability dye (diluted 1:1000 in PBS) for 15 minutes at room temperature. 100 µL cell staining buffer (CSB) (BioLegend, San Diego, CA, USA, #420201) was added to each well before centrifugation and removal of supernatants. Cell pellets were resuspended in 100 µL relevant cocktail of antibodies (see Tables S2 and S3) for surface staining and incubated for 30 minutes at 4 °C. Cells were washed in CSB and resuspended in 200 uL of FoxP3 fixation and permeabilisation buffer for 30 minutes in the dark at room temperature, washed and stained for intracellular markers for 30 minutes at room temperature. Cells were washed in Permwash and resuspended in CSB (250 µL) before acquisition on a Cytek Aurora spectral cytometer (Cytek, Fremont, CA, USA). […]

For `CNC(=O)COc1cc2cc(Nc3nc(N4C[C@H](C)C[C@H](C)C4)ncc3Cl)ccc2n(C)c1=O` [BI3802, reference compound], the IC50 (BCL6 BTB-POZ domain) is listed as < 3 nM.
In the case of `Cc1ncccc1[C@H]1C[C@@H](c2cccc3nc(N)ccc23)Nc2c(F)cnn21` [GSK137, 5-((5S,7R)-3-Fluoro-7-(2-methylpyridin-3-yl)-4,5,6,7-tetrahydropyrazolo[1,5-a]pyrimidin-5-yl)quinolin-2-amine], the “reduction of mean TNP-specific IgM levels vs vehicle” value ([1]; 15 mg/kg orally TID, day 12, p = 0.0027) is reported as 43%, the “reduction of mean TNP-specific IgG levels vs vehicle” value ([1]; 15 mg/kg orally TID, day 12, p = 0.0056) is reported as 58% and the “reduction of mean TNP-specific IgM levels vs vehicle” value ([1]; 30 mg/kg orally TID, day 12, p < 0.0001) is reported as 58%. For the same molecule, the “reduction of mean TNP-specific IgG levels vs vehicle” value ([1]; 30 mg/kg orally TID, day 12, p = 0.0023) was 66%, the “inhibition of TNP-specific IgM level” value ([1]; 15 and 30 mg/kg, day 5 or day 8) was “did not inhibit” and the “inhibition of serum TNP-specific IgG levels” value ([1]; 15 and 30 mg/kg, day 8) was “did not inhibit”. For the same molecule, the “mouse weights vs vehicle group” value ([2]; 15 and 30 mg/kg orally TID, over the experiment) was “did not vary significantly”, the “overt signs of toxicity” value ([2]; at the doses used (15 and 30 mg/kg)) was “no overt signs of toxicity” and the “levels of a panel of cytokines vs vehicle” value ([2]; mouse, in vivo) was “either undetectable or, if detectable, did not differ significantly”. The “plasmablasts and plasma cells as a percentage of total viable cells vs vehicle” value ([3]; 15 mg/kg or 30 mg/kg, Fig. S6B) was “no statistically significant reductions”, the “reduction of mean number of GC B cells per spleen vs vehicle” value ([3]; 15 mg/kg, day 12) was 53% and the “reduction of mean absolute number of Tfh cells per spleen vs vehicle” value ([3]; 15 mg/kg) was 39%. The “reduction of frequency of GC B cells within total splenic B cells vs vehicle” value ([3]; 15 mg/kg, day 12, p = 0.0058) was 61%, the “reduction of mean frequency of Tfh cells as fraction of splenic CD4+ T cells vs vehicle” value ([3]; 15 mg/kg, day 12, p = 0.014) was 48% and the “reduction of mean absolute number of Tfh cells per spleen vs vehicle” value ([3]; 30 mg/kg) was 34%. For the same molecule, the “reduction of frequency of GC B cells within total splenic B cells vs vehicle” value ([3]; 30 mg/kg, day 12, p = 0.0031) was 72%, the “reduction of mean frequency of Tfh cells as fraction of splenic CD4+ T cells vs vehicle” value ([3]; 30 mg/kg, day 12, p = 0.0041) was 50% and the “reduction of mean number of GC B cells per spleen vs vehicle” value ([3]; 30 mg/kg, day 12, p = 0.04) was 67%. For the same molecule, the “number of plasmablasts and plasma cells (CD19+/intCD138+) in spleen vs vehicle” value ([3]; 15 and 30 mg/kg, after immunization) was “no statistically significant difference”, the “macrophage, dendritic cell and natural killer cell markers (CD11c, CD11b, CD161) vs vehicle” value ([3]; data not shown) was “no difference” and the “mean total CD4+ T-cell numbers per spleen” value ([3]; significant at 30 mg/kg (p = 0.032), not at 15 mg/kg) was “return mean CD4^+ T-cell numbers to levels observed in naive mice”.
